US5002948A, “3-[4-[4-substituted-1-piperazinyl]-1-butyl]-1H-2,3-dihydroindoles” (H. Lundbeck A/S, priority 1988, dated 1991)

Experiments:
[1] = biological target: T1, serotonin 5-HT1A receptors (Rattus norvegicus, UniProt P19327); assay: Inhibition of 3H-8-OHDPAT binding to serotonin 5-HT1A receptors in rat brain in vitro; details: 3H-8-OHDPAT 1 nM, rat brain membranes minus cerebellum, 37° C., 15 min; read-out: IC50 (3H 8-OH DPAT binding)
T1 construct: membranes from rat brain minus cerebellum; from tissue; host or cells: brain minus cerebellum of male Wistar (Mol:Wist) rats, membranes
T1 sequence (P19327 1-422): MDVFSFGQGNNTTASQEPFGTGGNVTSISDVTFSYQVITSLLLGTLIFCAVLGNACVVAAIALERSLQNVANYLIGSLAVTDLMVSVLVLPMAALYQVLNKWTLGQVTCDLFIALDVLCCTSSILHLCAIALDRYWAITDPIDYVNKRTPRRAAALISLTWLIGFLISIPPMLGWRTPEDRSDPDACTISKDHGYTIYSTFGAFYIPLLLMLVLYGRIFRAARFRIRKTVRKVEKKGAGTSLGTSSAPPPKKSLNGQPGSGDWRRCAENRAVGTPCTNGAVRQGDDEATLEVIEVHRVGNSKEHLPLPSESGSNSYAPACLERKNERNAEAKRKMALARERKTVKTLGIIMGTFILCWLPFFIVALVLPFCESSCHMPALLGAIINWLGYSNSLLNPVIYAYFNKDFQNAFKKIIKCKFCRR
Procedure: INHIBITION OF ^3 H-8-OHDPAT BINDING TO SEROTONIN 5-HT1A RECEPTORS IN A RAT BRAIN IN VITRO
By this method the inhibition by drugs of the binding of ^3 H-8-OHDPAT (1 nM) to serotonin 5-HT1A receptors in membranes from rat brain minus cerebellum is determined in vitro.
Male Wistar (Mol:Wist) rats (125-250 g) are sacrificed and the brain is dissected and weighed. The brain tissue minus cerebellum is homogenized (Ultra Turrax, 20 sec) in 10 ml of ice cold 50 mM Tris buffer pH 8.0 (at 25° C.) containing 120 mM NaCl, 4 mM CaCl2 and 4 mM MgCl2. The homogenate is centrifuged at 20,000 g for 10 min at 4° C. The pellet is homogenized in 10 ml of buffer and incubated at 37° C. for 10 min. The homogenate is centrifuged as above and the pellet is homogenized in 100 vol (w/v) ice cold buffer containing 10 μ M of parglyine.
Incubation tubes kept on ice in triplicate receive 100 μl of drug solution in water (or water for total binding) and 1000 μ l of tissue suspension (final tissue content corresponds to 10 mg original tissue). The binding experiment is initiated by addition of 100 μ l of ^3 H-8-OHDPAT (final concentration 1 nM) and by placing the tubes in a 37° C. water bath. After incubation for 15 min the samples are filtered under vacuum (0-50 mBar) through Whatman GF/F filters ([…]). The tubes are rinsed with 5 ml ice cold 0.9% NaCl which are then poured on the filters. Thereafter, the filters are washed with 2×5 ml 0.9% NaCl. The filters are placed in counting vials and 4 ml of appropriate scintillation fluid (e.g. Picofluor™15) are added. After shaking for 1 h and storage 2 h in the dark the content of radioactivity is determined by liquid scintillation counting. Specific binding is obtained by subtracting the nonspecific binding in the presence of 10 μ M of 5-HT.
For determination of the inhibition of binding five concentrations of drugs covering 3 decades are used.
The IC50 -value is determined as the concentration, at which the binding is 50% of the total binding in control samples minus the nonspecific binding in the presence of 10 μM of 5-HT.
^3 H-8-OHDPAT from Amersham International plc. England. Specific activity approximately 200 Ci/mmol).

5-HT1A = biological target: T2, 5-HT1A (Rattus norvegicus, UniProt P19327); assay: Generalization to discriminative stimulus properties induced by 8-OHDPAT in rats (agonism); type: in vivo, Male Wistar rats; parameters: from tissue; host or cells: whole living animal, male Wistar rats, s.c. dosing; details: usually 30 or 45 min before test, substituted for 8-OHDPAT, per cent drug response; for ED50: rat, sc, read-out: ED50, 8-OH DPAT cue agonism
T2 sequence (P19327 1-422): T1 sequence (P19327 1-422)
Source text: GENERALIZATION TO DISCRIMINATIVE STIMULUS PROPERTIES INDUCED BY 8-OHDPAT IN RATS.
This test model is used to determine the agonist effects of a test compound on 5-HT1A receptors in vivo. A related method is described by Tricklebank, M. D., J. Neill, E. J. Kidd and J. R. Fozard, Eur. J. Pharmacol. 133, 37-56, 1987; Arnt, J., Pharmacology & Toxicology 64, 165-172, 1989.
The procedure is the same as for the antagonism test mentioned above, except that the test compound is substituted for 8-OHDPAT and injected s.c. usually 30 minutes or 45 minutes respectively before beginning of the test.
The per cent drug response obtained for each dose of test compound is used to calculate ED50 values by log-probit analysis.

Row | Structure (SMILES) | IC50 [1] | ED50 (5-HT1A) | ED50, 8-OH DPAT cue agonism (5-HT1A; s.c.)
1 | CCOc1ccccc1N1CCN(CCCCC2CNc3ccccc32)CC1 (stereo not drawn) [Compound 3c, 3-[4-[4-(2-ethoxyphenyl)-1-piperazinyl]-1-butyl]-1H-2,3-dihydroindole] | 11 nM | > 26 µmol/kg | 
2 | COc1ccccc1N1CCN(CCCCC2CNc3ccccc32)CC1 (single isomer, unassigned; (+)) [Compound 7a, (+)-3-[4-[4-(2-methoxyphenyl)-1-piperazinyl]-1-butyl]-1H-2,3-dihydroindole] | 13 nM | > 6.8 µmol/kg | 
3 | COc1ccccc1N1CCN(CCCCC2CNc3ccccc32)CC1 (single isomer, unassigned; (-)) [Compound 7b, (-)-3-[4-[4-(2-methoxyphenyl)-1-piperazinyl]-1-butyl]-1H-2,3-dihydroindole] | 8.6 nM |  | > 3.4 µmol/kg
4 | COc1ccccc1N1CCN(CCCCC2CNc3ccccc32)CC1 (stereo not drawn) [Compound 3a, 3-[4-[4-(2-methoxyphenyl)-1-piperazinyl]-1-butyl]-1H-2,3-dihydroindole] | 14 nM | > 9.2 µmol/kg | 
5 | c1ccc2c(c1)NCC2CCCCN1CCN(c2cccc3c2OCCO3)CC1 (stereo not drawn) [Compound 3j, 3-[4-[4-(1,4-benzodioxan-5-yl)-1-piperazinyl]-1-butyl]-1H-2,3-dihydroindole] | 3.3 nM | > 4.4 µmol/kg | 
6 | c1ccc2c(c1)NCC2CCCCN1CCN(c2cccc3c2OCC3)CC1 (stereo not drawn) [Compound 3i, 3-[4-[4-(2,3-dihydro-7-benzofuranyl)-1-piperazinyl]-1-butyl]-1H-2,3-dihydroindole] | 9.4 nM | 2.7 µmol/kg | 
